Test system: stable CF patients
Experiment: Phase 2 study: pulmonary function (FEV1, FVC, FEF 25-75)
Assay type: in vivo, human
Parameters: FEF 25-75, Median / FEV1, Day 14, Mean / FEF 25-75, Mean: unit not given here; FEV1, Day 1, Mean / FEV1, Day 1, Median / FEV1, Day 14, Median / FEV1, Day 28, Mean / FEV1, Day 28, Median: unit: L
Details: for Increase in FEF 25-75 / Increase in FEV1: median Day 1 to Day 28; for FEV1, Day 1, Mean / FEV1, Day 1, Median / FEV1, Day 14, Mean / FEV1, Day 14, Median / FEV1, Day 28, Mean / FEV1, Day 28, Median / FEV1, Percent Change from Baseline to Day 14, Mean / FEV1, Percent Change from Baseline to Day 14, Median / FEV1, Percent Change from Baseline to Day 28, Mean / FEV1, Percent Change from Baseline to Day 28, Median / % predicted FEV1, Mean / % predicted FEV1, Median: MITT population
Protocol: The following dosage regimens (as nebulizer loaded doses) were evaluated: 120 mg QD (daily); 240 mg QD (daily); and 240 mg BID (twice daily).
Efficacy endpoints including clinical endpoints, pulmonary function tests, and additional microbiological parameters were assessed as change from Day 1 to subsequent visits where the endpoint data was collected. Time to need for intravenous/oral/inhaled anti-pseudomonal antimicrobials were assessed from Day 1 until final visit using survival analysis. The primary population for efficacy analysis was the EE population, but efficacy endpoints were also analyzed using the MITT population.
Changes in FEV1 (forced expiratory volume in 1 second), FVC (forced vital capacity) and FEF 25-75 (forced expiratory flow 25-75%) from Day 1 to all subsequent visits were determined for patients. Tables 26 and 27 summarize the results for FEV1 measurements in EE and MITT populations, respectively. FIGS. 7 and 8 show graphs of percent change in FEV1 (L) and percent change in FEV1(L) vs. placebo, respectively, at Day 28 for the EET population treated with placebo, 120 mg QD, 240 mg QD, or 240 mg BID. […] Tables 28 and 29 summarize the results for predicted FEVI measurements in EE and MITT populations, respectively. Tables 30 and 31 summarize results for FEF 25-75 measurements in EE and MITT populations, respectively.

[1] = EE, 240 mg BID, Day 1 (baseline)
[2] = Day 1 (baseline), combined 240 mg QD and BID
[3] = Day 14, combined 240 mg QD and BID
[4] = Day 28, combined 240 mg QD and BID
[5] = MITT, 240 mg BID, Day 1 (baseline)

In the case of `C[C@H]1COc2c(N3CCN(C)CC3)c(F)cc3c(=O)c(C(=O)O)cn1c23` [Levofloxacin, levofloxacin], the “FEF 25-75, Median” value (EE population, Day 28, combined 240 mg QD and BID) was 0.97, the “FEF 25-75, Median” value (EE, 120 mg QD, Day 1) was 0.98 and the “FEV1, median” value (EE, 120 mg QD, Day 1) was 1.87 L. The “FEF 25-75, Median” value (EE, 120 mg QD, Day 28) was 1.03, the “FEV1, median” value (EE, 120 mg QD, Day 28) was 1.91 L and the “Increase in FEF 25-75” value (EE, 120 mg QD) was “approximately 5%”. For the same compound, the “Increase in FEV1” value (EE, 120 mg QD) was “approximately 2%”, the “FEF 25-75, Median” value [1] was 0.68 and the “FEV1, median” value [1] was 1.70 L. For the same compound, the “FEF 25-75, Median” value (EE, 240 mg BID, Day 28) was 0.78, the “FEV1, median” value (EE, 240 mg BID, Day 28) was 1.79 L and the “Increase in FEF 25-75” value (EE, 240 mg BID) was “approximately 15%”. For the same compound, the “Increase in FEV1” value (EE, 240 mg BID) was “approximately 5%”, the “FEF 25-75, Median” value (EE, 240 mg QD, Day 1) was 1.10 and the “FEV1, median” value (EE, 240 mg QD, Day 1) was 2.02 L. The “FEF 25-75, Median” value (EE, 240 mg QD, Day 28) was 1.15, the “FEV1, median” value (EE, 240 mg QD, Day 28) was 2.15 L and the “Increase in FEF 25-75” value (EE, 240 mg QD) was “approximately 4%”. For the same compound, the “Increase in FEV1” value (EE, 240 mg QD) was “approximately 6%”, the “Largest difference for FEF 25-75, placebo vs levofloxacin” value (EE, Day 14) was 0.25 L and the “Largest difference for FEV1, placebo vs levofloxacin” value (“Largest difference for FEV1, placebo” for short) (EE, Day 14) was 0.16 L. For the same compound, the “Largest difference for FEF 25-75, placebo vs levofloxacin” value (EE, Day 28) was 0.21 L, the “Largest difference for FEV1, placebo” value (EE, Day 28) was 0.24 L and the “FEV1, Day 1, Mean” value (120 mg QD) was 1.95. For the same compound, the “FEV1, Day 1, Median” value (120 mg QD) was 1.83, the “FEV1, Day 14, Mean” value (120 mg QD) was 1.97 and the “FEV1, Day 14, Median” value (120 mg QD) was 1.79. For the same compound, the “FEV1, Day 28, Mean” value (120 mg QD) was 1.99, the “FEV1, Day 28, Median” value (120 mg QD) was 1.83 and the “FEV1, Percent Change from Baseline to Day 14, Mean” value (120 mg QD) was 1.87%. The “FEV1, Percent Change from Baseline to Day 14, Median” value (120 mg QD) was 0.56%, the “FEV1, Percent Change from Baseline to Day 28, Mean” value (120 mg QD) was 1.92% and the “FEV1, Percent Change from Baseline to Day 28, Median” value (120 mg QD) was 1.60%. The “FEV1, Day 1, Mean” value (240 mg BID) was 1.88, the “FEV1, Day 1, Median” value (240 mg BID) was 1.70 and the “FEV1, Day 14, Mean” value (240 mg BID) was 2.04. The “FEV1, Day 14, Median” value (240 mg BID) was 1.90, the “FEV1, Day 28, Mean” value (240 mg BID) was 1.93 and the “FEV1, Day 28, Median” value (240 mg BID) was 1.82. The “FEV1, Percent Change from Baseline to Day 14, Mean” value (240 mg BID) was 9.34%, the “FEV1, Percent Change from Baseline to Day 14, Median” value (240 mg BID) was 7.51% and the “FEV1, Percent Change from Baseline to Day 28, Mean” value (240 mg BID) was 5.93%. For the same compound, the “FEV1, Percent Change from Baseline to Day 28, Median” value (240 mg BID) was 3.55%, the “FEV1, Day 1, Mean” value (240 mg QD) was 2.05 and the “FEV1, Day 1, Median” value (240 mg QD) was 1.90. For the same compound, the “FEV1, Day 14, Mean” value (240 mg QD) was 2.12, the “FEV1, Day 14, Median” value (240 mg QD) was 2.04 and the “FEV1, Day 28, Mean” value (240 mg QD) was 2.09. For the same compound, the “FEV1, Day 28, Median” value (240 mg QD) was 2.10, the “FEV1, Percent Change from Baseline to Day 14, Mean” value (240 mg QD) was 3.81% and the “FEV1, Percent Change from Baseline to Day 14, Median” value (240 mg QD) was 1.92%. The “FEV1, Percent Change from Baseline to Day 28, Mean” value (240 mg QD) was 2.35%, the “FEV1, Percent Change from Baseline to Day 28, Median” value (240 mg QD) was 1.28% and the “FEV1, Day 1, Mean” value (Combined 240 mg QD and BID) was 1.96. The “FEV1, Day 1, Median” value (Combined 240 mg QD and BID) was 1.80, the “FEV1, Day 14, Mean” value (Combined 240 mg QD and BID) was 2.08 and the “FEV1, Day 14, Median” value (Combined 240 mg QD and BID) was 1.97. The “FEV1, Day 28, Mean” value (Combined 240 mg QD and BID) was 2.01, the “FEV1, Day 28, Median” value (Combined 240 mg QD and BID) was 1.95 and the “FEV1, Percent Change from Baseline to Day 14, Mean” value (Combined 240 mg QD and BID) was 6.61%. For the same compound, the “FEV1, Percent Change from Baseline to Day 14, Median” value (Combined 240 mg QD and BID) was 3.94%, the “FEV1, Percent Change from Baseline to Day 28, Mean” value (Combined 240 mg QD and BID) was 4.14% and the “FEV1, Percent Change from Baseline to Day 28, Median” value (Combined 240 mg QD and BID) was 2.50%. For the same compound, the “% predicted FEV1, Mean” value (Day 1 (baseline), 120 mg QD) was 52.9%, the “% predicted FEV1, Median” value (Day 1 (baseline), 120 mg QD) was 53.0% and the “% predicted FEV1, Mean” value (Day 1 (baseline), 240 mg BID) was 48.8%. For the same compound, the “% predicted FEV1, Median” value (Day 1 (baseline), 240 mg BID) was 46.0%, the “% predicted FEV1, Mean” value (Day 1 (baseline), 240 mg QD) was 55.4% and the “% predicted FEV1, Median” value (Day 1 (baseline), 240 mg QD) was 56.0%. For the same compound, the “% predicted FEV1, Mean” value [2] was 52.0%, the “% predicted FEV1, Median” value [2] was 51.0% and the “% predicted FEV1, Mean” value (Day 14, 120 mg QD) was 53.9%. For the same compound, the “% predicted FEV1, Median” value (Day 14, 120 mg QD) was 53.0%, the “% predicted FEV1, Mean” value (Day 14, 240 mg BID) was 52.1% and the “% predicted FEV1, Median” value (Day 14, 240 mg BID) was 49.56%. For the same compound, the “% predicted FEV1, Mean” value (Day 14, 240 mg QD) was 57.1%, the “% predicted FEV1, Median” value (Day 14, 240 mg QD) was 61.0% and the “% predicted FEV1, Mean” value [3] was 54.6%. The “% predicted FEV1, Median” value [3] was 52.0%, the “% predicted FEV1, Mean” value (Day 28, 120 mg QD) was 54.1% and the “% predicted FEV1, Median” value (Day 28, 120 mg QD) was 50.0%. For the same compound, the “% predicted FEV1, Mean” value (Day 28, 240 mg BID) was 50.8%, the “% predicted FEV1, Median” value (Day 28, 240 mg BID) was 49.0% and the “% predicted FEV1, Mean” value (Day 28, 240 mg QD) was 56.7%. For the same compound, the “% predicted FEV1, Median” value (Day 28, 240 mg QD) was 54.0%, the “% predicted FEV1, Mean” value [4] was 53.8% and the “% predicted FEV1, Median” value [4] was 53.5%. The “FEF 25-75, Median” value [5] was 0.68, the “FEV1, median” value [5] was 1.70 L and the “FEF 25-75, Median” value (MITT, 240 mg BID, Day 28) was 0.82. The “FEV1, median” value (MITT, 240 mg BID, Day 28) was 1.82 L, the “Increase in FEF 25-75” value (MITT, 240 mg BID) was “approximately 20%” and the “Increase in FEV1” value (MITT, 240 mg BID) was “approximately 7%”. For the same compound, the “FEF 25-75, Median” value (MITT, 240 mg QD, Day 1) was 1.09, the “FEV1, median” value (MITT, 240 mg QD, Day 1) was 1.90 L and the “FEF 25-75, Median” value (MITT, 240 mg QD, Day 28) was 1.12. The “FEV1, median” value (MITT, 240 mg QD, Day 28) was 2.10 L, the “Increase in FEF 25-75” value (MITT, 240 mg QD) was “approximately 3%” and the “Increase in FEV1” value (MITT, 240 mg QD) was “approximately 10%”. For the same compound, the “Largest difference for FEF 25-75, placebo vs levofloxacin” value (MITT, Day 14) was 0.27 L, the “Largest difference for FEV1, placebo” value (MITT, Day 14) was 0.12 L and the “Largest difference for FEF 25-75, placebo vs levofloxacin” value (MITT, Day 28) was 0.21 L. For the same compound, the “Largest difference for FEV1, placebo” value (MITT, Day 28) was 0.25 L.
